“Also recorded” adds a separate entry of the source.
How the values were obtained:
RPMI8402 = test: Annexin V apoptosis, RPMI8402; assay type: cell-based, human; conditions: 10 μM, 7 days
Method: (§1) FIGS. 6A-6D show 6-(4-Tert-Butylphenoxy)Pyridin-3-Amine (I3) induces G0/G1 cell cycle arrest and apoptosis in human T cell acute lymphoblastic leukemia cell lines and human breast cancer cell line HCC1187. […] Percentage of Annexin V positive (apoptotic) cell population was measured using flow cytometry.
(§2) To quantitate the percentage of apoptotic cells, AnnexinV and 7AAD staining was performed. Thymic cells were suspended in 300 μl of 1× AnnexinV binding buffer (BD Biosciences, San Diego, USA) and incubated with 10 μl of AnnexinV-Cy5 antibody and 10 μl of 7AAD (BD Biosciences, San Diego, USA). Samples were incubated for 15 minutes at room temperature. FACS was performed with in one hour of antibody staining.
(§3) This 6-(4-Tert-Butylphenoxy)Pyridin-3-Amine (I3) mediated proliferative arrest could be due to induction of apoptosis or cell cycle arrest during different phases of cell cycle. […] Therefore to further elucidate the mechanisms responsible for 6-(4-Tert-Butylphenoxy)Pyridin-3-Amine (I3) mediated proliferative arrest cell cycle and apoptosis analyses were carried out. […] To investigate cell death, Annexin V staining was performed and proportion of apoptotic (AnnexinV positive) cell population was determined by flow cytometry analyses after 7 days of treatment.

HCC1187 = test: Annexin V apoptosis, HCC1187; assay type: cell-based, human; conditions: 10 μM, 7 days
Method: as §1, §2, §3

[1] = test system: Hedgehog signalling (Gli1); test: Hedgehog signalling Gli1 luciferase assay in HeLa cells; assay type: cell-based; conditions: HeLa cells with Gli1 and Gli1 binding site luciferase
Source text: Using a similar strategy, Hedgehog signalling was activated in HeLa cells by introducing the Gli1 transcription factor and pathway activation was monitored using a promoter sequence containing Gli1 binding sites driving the luciferase expression. […] However it still needs to be determined whether the resistance of Wnt and Hedgehog signalling towards 6-(4-Tert-Butylphenoxy)Pyridin-3-Amine (I3) is cell type specific or whether it is a general phenomenon.

[2] = Body weight changes in mice; assay type: in vivo, mouse; conditions: 25 mg/kg, 5 consecutive days
Method: C57B16 mice were intra peritoneal (i.p) injected with oil or 25 mg/kg of I3 or 10 mg/kg of CPA, once a day for 5-7 days. Mice were weighed using a weighing scale on day 0, day 3 and day 5. On day 8, intestinal tissue, spleen and thymus were harvested for analyses.
In in vitro culture assays, chemical compound 6-(4-Tert-Butylphenoxy)Pyridin-3-Amine (I3) was able to block Notch1 and Notch2 mediated pathway activation. Therefore, Applicants hypothesized that treatment of mice with 6-(4-Tert-Butylphenoxy)Pyridin-3-Amine (I3) may lead to a goblet cell metaplasia of the intestine. To test this hypothesis, mice were intra peritoneally (i.p) injected with 25 mg/kg of 6-(4-Tert-Butylphenoxy)Pyridin-3-Amine (I3) for 7 consecutive days. On day 8, animals were sacrificed and intestinal tissues were fixed and embedded in paraffin. Histological analyses were carried out using Alcian blue to stain for goblet cells. […] Similarly, the effect of 6-(4-Tert-Butylphenoxy)Pyridin-3-Amine (I3) on body weight changes was also monitored. Mice were injected for 5 consecutive days with 25 mg/kg of 6-(4-Tert-Butylphenoxy)Pyridin-3-Amine (I3) and the changes in body mass were recorded.

MZB cells in the spleen = test: Marginal Zone B cell development in the spleen (flow cytometry); assay type: in vivo, mouse; conditions: 25 mg/kg, 7 consecutive days, analysed day 8
Method: FIGS. 7A-7C show 6-(4-Tert-Butylphenoxy)Pyridin-3-Amine (I3) mimics genetic loss of Notch2 signalling phenotype in the spleen. Loss of Notch signalling in the spleen leads to a reduction in Marginal Zone B cells (MZB) cells in the spleen. […] Spleens were analyzed on day 8. Using B220 specific antibodies, B cells in the spleen were identified. MZB cells within the B cell compartment were detected using antibodies against CD23 and CD21 cell surface markers.
Fluorescence activated cell sorting (FACS) analyses were performed on CyAn™ ADP instrument platform for flow cytometry at Flow cytometry core facility, EPFL. DL4 and Notch1 expression in DL4- and N1-HeLa cells was determined using anti-DL4 and anti-N1 antibodies respectively. T cell development in the thymus was investigated using antibodies against CD4, CD8 and TCRβ. MZB cell development was monitored using antibodies against B220, CD21 and CD23. In brief, a single cell suspension was prepared from thymus and spleen. […]
Applicants hypothesized that 6-(4-Tert-Butylphenoxy)Pyridin-3-Amine (I3) mediated inhibition of Notch2 signalling should lead to a block in MZB cell development in the spleen. MZB cell development was assessed by flow cytometry staining of splenocytes with antibodies directed against B220, CD21 and CD23.

[3] = test system: primary human TALL samples; test: Primary human TALL samples treated with I3; assay type: cell-based
Source text: To further investigate the Notch inhibitory effect of 6-(4-Tert-Butylphenoxy)Pyridin-3-Amine (I3) in a relevant pathological condition, primary human TALL samples were profiled for the activation of Notch signalling. An accumulation of active form of Notch (NICD) was used as a biomarker for pathway activation.

[4] = primary human TALL with accumulation of NICD

In the case of CC(C)(C)c1ccc(Oc2ccc(N)cn2)cc1 [I3, 6-(4-Tert-Butylphenoxy)Pyridin-3-Amine], the “apoptosis (Annexin V positive cells)” value (RPMI8402) is reported as “induces significant apoptosis”, the “apoptosis (Annexin V positive cells)” value (HCC1187) is reported as “induces apoptosis” and the Hedgehog signalling [1] is reported as “did not inhibit the Hedgehog signalling cascade”. For the same molecule, the body weight [2] was “did not cause a loss in the body weight”, the “absolute numbers of MZB cells in the spleen” value (MZB cells in the spleen) was “loss of MZB cell population in the spleen also reflects in the absolute number of MZB cells; also recorded: causes a reduction the percentage and absolute numbers of MZB cells in the spleen” and the “percentage of MZB cells in the spleen” value (MZB cells in the spleen) was “leads to a reduction in the percentage of MZB cell population in the spleen; also recorded: causes a significant reduction in the percentage of MZB cells in the spleen; also recorded: causes a reduction the percentage and absolute numbers of MZB cells in the spleen”. For the same molecule, the response to treatment ([3]; primary human TALL samples without detectable levels of NICD) was “did not respond”, the NICD protein [3, 4] was “leads to a downregulation of this protein” and the proliferation [3, 4] was “correlates with a proliferative arrest”.

From US10054581B1, “Inhibitors of notch signaling pathway and use thereof in treatment of cancers” (Ecole Polytechnique Federale de Lausanne (EPFL), priority 2011, dated 2018)
